The subject of the assay is rat. Nature of the assay: Analgesic Activity: Rat Hot Plate Assay. The format is in vivo. The conditions noted are these: for ED50: po, 1 h, p.o. in rat, single substance, 60 min prior to testing, plate 45±1.0° C., ± standard error. From the text: The rat hot plate assay incorporated two modifications of the mouse hot plate assay originally described by Eddy et al., J. Pharmacol. Exp. Ther. 98, 121-137 (1950). The first modification was enlargement of the diameter of the cylindrical (water filled) copper plate to 25.0 cm to accommodate rats instead of mice. The second modification was the use of a temperature controller to regulate a 250 watt infrared heat lamp which was activated via a thermistor probe attached to the under surface of the copper plate, the temperature of which was thus maintained at 45±1.0° C. (N=28 measurements of the plate temperature under experimental conditions). The time required for a rat placed on the hot plate to respond by lifting, shaking or licking either of its hind or forelimbs was recorded in tenths of a second. Only animals responding in pretest within 6-13 seconds were used in the studies. The combination, comprising an intimate mixture of codeine phosphate with compound I, was suspended in 0.5% sodium carboxymethylcellulose and administered orally, by gavage, in a volume of 1.00 ml/100 g.b. wt. 60 min prior to testing. […] The reaction time of 18.3 seconds represented the sum of the mean pretest times of 40 untreated rats plus the time of 3 standard deviations of the mean. ED50 's and their standard errors were estimated from a graph of the dose-response curves using the method of Miller and Tainter (Proc. Soc. Exp. Biol. Med. 57, 261-262 (1944). Following this procedure the analgesic activities of codeine, compound I and the combination (codeine+compound I) were compared (Table I).

As to `COc1ccc2c3c1O[C@H]1[C@@H](O)C=C[C@H]4[C@@H](C2)N(C)CC[C@@]341` [Codeine Phosphate, reference compound], the ED50 was found to be 57 ± 35.3 mg/kg.

On to `O=C1CCCN1c1ccc2c(c1)OCO2` [Compound I, 1-(1,3-benzodioxol)-5-yl-2-pyrrolidinone], for which the ED50 was 86 ± 16.5 mg/kg. In addition, the “potentiation of the analgesic activity of codeine” value (upon oral administration, compound I with codeine, species not stated) is listed as “four to seven”.

Values taken from patent publication US4438142A, “Pharmaceutical combination” (Burroughs Wellcome Co., priority 1982, dated 1984).
